Values after ≈ are worked out from the molar mass of the structure shown. Where two headings read alike, the source gives them in different places.
Experiments:
Assay in all cases: Antibacterial spectrum, MIC by agar dilution method
Type in all cases: cell-based
[1] = system: Pseudomonas aeruginosa Z-445; settings: Z445, pH 7.2, strain produces 6N-acetyltransferase Type III, read-out: Minimum Inhibitory Concentration
Source text: (§1) XK-62-2, 1-N-[L-(-)-α-hydroxy-γ-aminobutyryl] XK-62-2, Compounds (I-1), (I-2), (II-1) and (II-2) against various Gram-negative and Gram-positive bacteria determined by agar dilution method at pH 7.2.
(§2) ^8 produces 6N-acetyltransferase Type III

[2] = system: Pseudomonas aeruginosa KY Z-444
Source text: as §1, §2

[3] = system: Pseudomonas aeruginosa KY 8519; settings: KY8519, agar dilution, pH 7.2, strain produces neomycinkanamycin phosphotransferase Type I and Type II, read-out: Minimum Inhibitory Concentration
Source text: as §1
(§3) ^6 produces neomycinkanamycin phosphotransferase Type I and Type II

[4] = system: Pseudomonas aeruginosa KY 8512; settings: KY8512, pH 7.2, strain produces neomycinkanamycin phosphotransferase Type I and Type II, read-out: Minimum Inhibitory Concentration
Source text: as §1, §3

[5] = system: Pseudomonas aeruginosa KY 8518; settings: KY8518, pH 7.2, strain produces neomycinkanamycin phosphotransferase Type I, read-out: Minimum Inhibitory Concentration
Source text: as §1
(§4) ^3 produces neomycinkanamycin phosphotransferase Type I

Escherichia coli KY 8320 = settings: KY8320, pH 7.2, strain produces neomycinkanamycin phosphotransferase Type I, read-out: Minimum Inhibitory Concentration
Source text: as §1, §4

Escherichia coli KY 8349 = settings: KY8349, pH 7.2, strain produces neomycinkanamycin phosphotransferase Type I, read-out: Minimum Inhibitory Concentration
Source text: as §1, §4

[6] = system: Staphylococcus aureus Smith; settings: pH 7.2, read-out: Minimum Inhibitory Concentration
Source text: as §1

Proteus vulgaris 6897 = settings: pH 7.2, read-out: Minimum Inhibitory Concentration
Source text: as §1

Proteus morganii KY 4298 = settings: Morganella morganii
Source text: as §1

Escherichia coli T-2 = settings: T2, pH 7.2, read-out: Minimum Inhibitory Concentration
Source text: as §1

[7] = system: bacillus subtilis ATCC 6633; settings: ATCC6633, pH 7.2, read-out: Minimum Inhibitory Concentration
Source text: as §1

[8] = system: Pseudomonas aeruginosa BMH 10; settings: BMH10, pH 7.2, read-out: Minimum Inhibitory Concentration
Source text: as §1

[9] = system: Klebsiella pneumoniae No. 8045; settings: pH 7.2, read-out: Minimum Inhibitory Concentration
Source text: as §1

[10] = system: Salmonella enteritidis G-14; settings: Salmonella enterica, pH 7.2, read-out: Minimum Inhibitory Concentration
Source text: as §1

[11] = system: Pseudomonas aeruginosa NC-5
Source text: as §1

[12] = system: Pseudomonas aeruginosa E-2
Source text: as §1

Escherichia coli T-5 = system: Escherichia coli T-5
Source text: as §1

[13] = system: Salmonella typhimurium E-9; settings: Salmonella enterica, pH 7.2, read-out: Minimum Inhibitory Concentration
Source text: as §1

Providencia sp. 164 = settings: pH 7.2, strain produces gentamicin acetyltransferase Type II, read-out: Minimum Inhibitory Concentration
Source text: as §1
^9 produces gentamicin acetyltransferase Type II

Escherichia coli KY 8321 = settings: KY8321, pH 7.2, strain produces gentamicin adenyltransferase and neomycinkanamycin phosphotransferase Type II, read-out: Minimum Inhibitory Concentration
Source text: as §1
^5 produces gentamicin adenyltransferase and neomycinkanamycin
phosphotransferase Type II

[14] = system: Escherichia coli KY Z-338; settings: KYZ338, pH 7.2, strain produces gentamicin adenyltransferase, read-out: Minimum Inhibitory Concentration
Source text: as §1
(§5) ^4 produces gentamicin adenyltransferase

[15] = system: Klebsiella pneumoniae Y-60; settings: Y60, pH 7.2, strain produces gentamicin adenyltransferase, read-out: Minimum Inhibitory Concentration
Source text: as §1, §5

[16] = system: Klebsiella pneumoniae Y-58; settings: Y58, pH 7.2, strain produces gentamicin adenyltransferase, read-out: Minimum Inhibitory Concentration
Source text: as §1, §5

[17] = system: Pseudomonas aeruginosa KY 8511; settings: KY8511, pH 7.2, strain produces gentamicin acetyltransferase Type I, read-out: Minimum Inhibitory Concentration
Source text: as §1
(§6) ^2 produces gentamicin acetyltransferase Type I

Escherichia coli KY 8348 = settings: KY8348, pH 7.2, strain produces gentamicin acetyltransferase Type I, read-out: Minimum Inhibitory Concentration
Source text: as §1, §6

[18] = system: Pseudomonas aeruginosa KY 8510
Source text: as §1
(§7) ^1 produces kanamycin acetyltransferase

[19] = system: Escherichia coli KY Z-343; settings: KYZ343, pH 7.2, strain produces kanamycin acetyltransferase, read-out: Minimum Inhibitory Concentration
Source text: as §1, §7

[20] = system: Serratia marcescens POE 1065
Source text: as §1, §7

[21] = system: Pseudomonas aeruginosa KY 8516
Source text: as §1, §7

[22] = KYZ444, agar dilution, pH 7.2, strain produces 6N-acetyltransferase Type III, read-out: Minimum Inhibitory Concentration
[23] = KY4298, agar dilution, pH 7.2, read-out: Minimum Inhibitory Concentration
[24] = T5, agar dilution, pH 7.2, read-out: Minimum Inhibitory Concentration
[25] = KY8510, agar dilution, pH 7.2, strain produces kanamycin acetyltransferase, read-out: Minimum Inhibitory Concentration
[26] = POE1065, agar dilution, pH 7.2, strain produces kanamycin acetyltransferase, read-out: Minimum Inhibitory Concentration
[27] = KY8516, agar dilution, pH 7.2, strain produces kanamycin acetyltransferase, read-out: Minimum Inhibitory Concentration
[28] = NC5, pH 7.2, read-out: Minimum Inhibitory Concentration
[29] = E2, pH 7.2, read-out: Minimum Inhibitory Concentration

| Compound | MIC [1] [µg/mL] | MIC [3] [µg/mL] | MIC [4] [µg/mL] | MIC [5] [µg/mL] | MIC (Escherichia coli KY 8320) [µg/mL] | MIC (Escherichia coli KY 8349) [µg/mL] | MIC [6] [µg/mL] | MIC (Proteus vulgaris 6897) [µg/mL] | MIC (Escherichia coli T-2) [µg/mL] | MIC [7] [µg/mL] | MIC [8] [µg/mL] | MIC [9] [µg/mL] | MIC [13] [µg/mL] | MIC (Providencia sp. 164) [µg/mL] | MIC (Escherichia coli KY 8321) [µg/mL] | MIC [14] [µg/mL] | MIC [15] [µg/mL] | MIC [16] [µg/mL] | MIC [17] [µg/mL] | MIC (Escherichia coli KY 8348) [µg/mL] | other results |
| --- | --- | --- | --- | --- | --- | --- | --- | --- | --- | --- | --- | --- | --- | --- | --- | --- | --- | --- | --- | --- | --- |
| CNCC1CCC(N)C(OC2C(N)CC(NC(=O)C(O)CCN)C(OC3OCC(C)(O)C(NC)C3O)C2O)O1 (single isomer, unassigned) [1-N-[L-(-)-α-hydroxy-γ-aminobutyryl] XK-62-2, reference compound] | 6.25 (≈ 11.1 µM) | 6.25 (≈ 11.1 µM) | 1.56 (≈ 2.76 µM) | 1.56 (≈ 2.76 µM) | 0.2 (≈ 0.354 µM) | 0.1 (≈ 0.177 µM) | 0.1 (≈ 0.177 µM) | 1.56 (≈ 2.76 µM) | 0.4 (≈ 0.708 µM) | 0.1 (≈ 0.177 µM) | 0.4 (≈ 0.708 µM) | 0.2 (≈ 0.354 µM) | 0.2 (≈ 0.354 µM) | 6.25 (≈ 11.1 µM) | 0.2 (≈ 0.354 µM) | 0.2 (≈ 0.354 µM) | 0.2 (≈ 0.354 µM) | 0.2 (≈ 0.354 µM) | 1.56 (≈ 2.76 µM) | 0.1 (≈ 0.177 µM) | MIC [2, 22]: 1.56 µg/mL (≈ 2.76 µM); MIC (Proteus morganii KY 4298; [23]): 0.78 µg/mL (≈ 1.38 µM); MIC ([10]; agar dilution): 3.12 µg/mL (≈ 5.53 µM); MIC ([11]; NC5, agar dilution, pH 7.2, read-out: Minimum Inhibitory Concentration): 3.12 µg/mL (≈ 5.53 µM); MIC ([12]; E2, agar dilution, pH 7.2, read-out: Minimum Inhibitory Concentration): 3.12 µg/mL (≈ 5.53 µM); MIC (Escherichia coli T-5; [24]): 0.4 µg/mL (≈ 0.708 µM); MIC [18, 25]: 3.12 µg/mL (≈ 5.53 µM); MIC [19]: 0.1 µg/mL (≈ 0.177 µM); MIC [20, 26]: 0.78 µg/mL (≈ 1.38 µM); MIC [21, 27]: 3.12 µg/mL (≈ 5.53 µM) |
| CC1(O)COC(OC2C(NC(=O)C(O)CCN)CC(N)C(OC3OC(CN)CCC3N)C2O)C(O)C1N (single isomer, unassigned) [Compound I-2, 3"-N, 6'-N-didemethyl-1-N-[L-(-)-α-hydroxy-γ-aminobutyryl] XK-62-2] | 6.25 (≈ 11.6 µM) | 3.12 (≈ 5.81 µM) | 0.78 (≈ 1.45 µM) | 0.78 (≈ 1.45 µM) | 0.78 (≈ 1.45 µM) | 0.4 (≈ 0.745 µM) | 0.2 (≈ 0.373 µM) | 3.12 (≈ 5.81 µM) | 0.78 (≈ 1.45 µM) | 0.1 (≈ 0.186 µM) | 0.4 (≈ 0.745 µM) | 0.78 (≈ 1.45 µM) | 0.4 (≈ 0.745 µM) | 6.25 (≈ 11.6 µM) | 0.78 (≈ 1.45 µM) | 0.4 (≈ 0.745 µM) | 0.78 (≈ 1.45 µM) | 0.78 (≈ 1.45 µM) | 0.78 (≈ 1.45 µM) | 0.4 (≈ 0.745 µM) | MIC ([2]; KYZ444, pH 7.2, read-out: Minimum Inhibitory Concentration): 1.56 µg/mL (≈ 2.91 µM); MIC (Proteus morganii KY 4298; [23]): 0.78 µg/mL (≈ 1.45 µM); MIC ([10]; agar dilution): 12.5 µg/mL (≈ 23.3 µM); MIC [11, 28]: 1.56 µg/mL (≈ 2.91 µM); MIC [12, 29]: 1.56 µg/mL (≈ 2.91 µM); MIC (Escherichia coli T-5; T5, pH 7.2, read-out: Minimum Inhibitory Concentration): 1.56 µg/mL (≈ 2.91 µM); MIC [18, 25]: 12.5 µg/mL (≈ 23.3 µM); MIC [19]: 0.2 µg/mL (≈ 0.373 µM); MIC [20, 26]: 25 µg/mL (≈ 46.6 µM); MIC [21, 27]: 25 µg/mL (≈ 46.6 µM) |
| CNCC1CCC(N)C(OC2C(N)CC(NC(=O)C(O)CN)C(OC3OCC(C)(O)C(N)C3O)C2O)O1 (racemic) [II-1, 3"-N-demethyl-1-N-(DL-α-hydroxy-β-aminopropionyl) XK-62-2] | 6.25 (≈ 11.6 µM) | 6.25 (≈ 11.6 µM) | 1.56 (≈ 2.91 µM) | 1.56 (≈ 2.91 µM) | 1.56 (≈ 2.91 µM) | 0.4 (≈ 0.745 µM) | 0.4 (≈ 0.745 µM) | 12.5 (≈ 23.3 µM) | 1.56 (≈ 2.91 µM) | 0.2 (≈ 0.373 µM) | 0.4 (≈ 0.745 µM) | 0.78 (≈ 1.45 µM) | 0.78 (≈ 1.45 µM) | 25 (≈ 46.6 µM) | 1.56 (≈ 2.91 µM) | 0.78 (≈ 1.45 µM) | 1.56 (≈ 2.91 µM) | 0.78 (≈ 1.45 µM) | 1.56 (≈ 2.91 µM) | 0.4 (≈ 0.745 µM) | MIC [2, 22]: 1.56 µg/mL (≈ 2.91 µM); MIC (Proteus morganii KY 4298; KY4298, pH 7.2, read-out: Minimum Inhibitory Concentration): 3.12 µg/mL (≈ 5.81 µM); MIC [10]: 3.12 µg/mL (≈ 5.81 µM); MIC [11, 28]: 3.12 µg/mL (≈ 5.81 µM); MIC [12, 29]: 3.12 µg/mL (≈ 5.81 µM); MIC (Escherichia coli T-5; [24]): 1.56 µg/mL (≈ 2.91 µM); MIC ([18]; KY8510, pH 7.2, read-out: Minimum Inhibitory Concentration): 3.12 µg/mL (≈ 5.81 µM); MIC [19]: 0.4 µg/mL (≈ 0.745 µM); MIC ([20]; POE1065, pH 7.2, read-out: Minimum Inhibitory Concentration): 3.12 µg/mL (≈ 5.81 µM); MIC ([21]; KY8516, pH 7.2, read-out: Minimum Inhibitory Concentration): 3.12 µg/mL (≈ 5.81 µM) |
